Reference: ChEMBL document CHEMBL1795236, “Design and synthesis of protein-protein interaction mimics as Plasmodium falciparum cysteine protease, falcipain-2 inhibitors” (Eur J Med Chem, 2011)
The source made the active and inactive calls. The calls are words filed in the database; no cut-off is given here. Peptide text beside a SMILES is read from it.

Tests used:
Plasmodium falciparum [1] = test: Antimalarial activity against Plasmodium falciparum infected in human RBC assessed as clumps of malarial pigment at 200 nM after 48 hrs by Giemsa staining based microscopy; assay type: functional, organism-based
Plasmodium falciparum [2] = test: Antimalarial activity against Plasmodium falciparum infected in human RBC assessed as swollen food vacuole at early trophozoite stage at 200 nM after 48 hrs by Giemsa staining based microscopy; assay type: functional, organism-based
Plasmodium falciparum [3] = test: Inhibition of Plasmodium falciparum recombinant falcipain 2 using fluorogenic ZFR-AMC substrate at 5 uM after 30 mins by fluorimetric assay
Plasmodium falciparum [4] = test: Antimalarial activity against Plasmodium falciparum infected in human RBC assessed as abnormal schizonts at 200 nM after 48 hrs by Giemsa staining based microscopy; assay type: functional, organism-based
[5] = (§1) Inhibition of Plasmodium falciparum recombinant refolded falcipain 2 activity using ZFR-AMC as a substrate after 30 mins by fluorimetric assay
Plasmodium falciparum [6] = test: as §1

Row | Compound | Activity (Plasmodium falciparum [1]) | Activity (Plasmodium falciparum [2]) | inhibition (Plasmodium falciparum [3]) | Activity (Plasmodium falciparum [4]) | Ki [5] | inhibition (Plasmodium falciparum [6])
1 | CC[C@H](C)[C@H](NC(=O)CNC(=O)[C@H](CO)NC(=O)[C@@H](NC(=O)[C@H](CC(C)C)NC(=O)[C@H](CCC(N)=O)NC(=O)[C@H](CCCNC(=N)N)NC(=O)CCCNC(=O)[C@@H](NC(=O)[C@@H]1CCCN1C(=O)[C@H](C)NC(=O)CNC(=O)[C@H](CC(C)C)NC(=O)[C@H](CC(C)C)NC(=O)[C@@H](N)CCCNC(=N)N)C(C)C)C(C)C)C(=O)NCCC(=O)NCCC(=O)N1CCC[C@H]1C(=O)N[C@@H](Cc1c[nH]c2ccccc12)C(N)=O (HELM PEPTIDE1{R.L.L.G.A.P.V.[O=C(CCCN[*:1])[*:2]].R.Q.L.V.S.G.I.[bAla].[bAla].P.W.[am]}$$$$V2.0) | Active | Active | 49% | Active |  | 
2 | CC[C@H](C)[C@H](NC(=O)CNC(=O)[C@H](CO)NC(=O)[C@@H](NC(=O)[C@H](CC(C)C)NC(=O)[C@H](CCC(N)=O)NC(=O)[C@H](CCCNC(=N)N)NC(=O)[C@H]1CC[C@@H](NC(=O)[C@@H](NC(=O)[C@@H]2CCCN2C(=O)[C@H](C)NC(=O)CNC(=O)[C@H](CC(C)C)NC(=O)[C@H](CC(C)C)NC(=O)[C@@H](N)CCCNC(=N)N)C(C)C)CC1)C(C)C)C(=O)NCCC(=O)NCCC(=O)N1CCC[C@H]1C(=O)N[C@@H](Cc1c[nH]c2ccccc12)C(N)=O (HELM PEPTIDE1{R.L.L.G.A.P.V.[O=C([C@H]1CC[C@@H](N[*:1])CC1)[*:2]].R.Q.L.V.S.G.I.[bAla].[bAla].P.W.[am]}$$$$V2.0) | Active | Active | 60% | Active | 2500 nM | 
3 | H-RLLGAPV-NH2 | Active | Active | 5% | Active |  | 
4 | CC[C@H](C)[C@H](NC(=O)CNC(=O)[C@H](CO)NC(=O)[C@@H](NC(=O)[C@H](CC(C)C)NC(=O)[C@H](CCC(N)=O)NC(=O)CCCNC(=O)[C@@H]1CCCN1C(=O)[C@H](C)NC(=O)CNC(=O)[C@H](CC(C)C)NC(=O)[C@H](CC(C)C)NC(=O)[C@@H](N)CCCNC(=N)N)C(C)C)C(N)=O (HELM PEPTIDE1{R.L.L.G.A.P.[O=C(CCCN[*:1])[*:2]].Q.L.V.S.G.I.[am]}$$$$V2.0) | Active | Active | 44% | Active |  | 
5 | CC[C@H](C)[C@H](NC(=O)CNC(=O)[C@H](CO)NC(=O)[C@@H](NC(=O)[C@H](CC(C)C)NC(=O)[C@H](CCC(N)=O)NC(=O)[C@H](CCCNC(=N)N)NC(=O)CCCNC(=O)[C@@H](NC(=O)[C@@H]1CCCN1C(=O)[C@H](C)NC(=O)CNC(=O)[C@H](CC(C)C)NC(=O)[C@H](CC(C)C)NC(=O)[C@@H](N)CCCNC(=N)N)C(C)C)C(C)C)C(N)=O (HELM PEPTIDE1{R.L.L.G.A.P.V.[O=C(CCCN[*:1])[*:2]].R.Q.L.V.S.G.I.[am]}$$$$V2.0) | Active | Active | 57% | Active | 2500 nM | 
6 | Ac-RQLVSGI-NH2 |  |  | 10% |  |  | 
7 | CC[C@H](C)[C@H](NC(=O)CNC(=O)[C@H](CO)NC(=O)[C@@H](NC(=O)[C@H](CC(C)C)NC(=O)[C@H](CCC(N)=O)NC(=O)[C@H](CCCNC(=N)N)NC(=O)[C@H]1CC[C@@H](NC(=O)[C@@H](NC(=O)[C@@H]2CCCN2C(=O)[C@H](C)NC(=O)CNC(=O)[C@H](CC(C)C)NC(=O)[C@H](CC(C)C)NC(=O)[C@@H](N)CCCNC(=N)N)C(C)C)CC1)C(C)C)C(N)=O (HELM PEPTIDE1{R.L.L.G.A.P.V.[O=C([C@H]1CC[C@@H](N[*:1])CC1)[*:2]].R.Q.L.V.S.G.I.[am]}$$$$V2.0) | Active | Active | 63% | Active | 2000 nM | 
8 | CC[C@H](C)[C@H](NC(=O)CNC(=O)[C@H](CO)NC(=O)[C@@H](NC(=O)[C@H](CC(C)C)NC(=O)[C@H](CCC(N)=O)NC(=O)[C@@H]1CSSC[C@H](NC(=O)[C@@H]2CCCN2C(=O)[C@H](C)NC(=O)CNC(=O)[C@H](CC(C)C)NC(=O)[C@H](CC(C)C)NC(=O)[C@@H](N)CCCNC(=N)N)C(=O)NCCCC(=O)N1)C(C)C)C(N)=O (HELM PEPTIDE1{R.L.L.G.A.P.C.[O=C(CCCN[*:1])[*:2]].C.Q.L.V.S.G.I.[am]}$PEPTIDE1,PEPTIDE1,7:R3-9:R3$$$V2.0) |  |  | 39% |  |  | 
9 | CC[C@H](C)[C@H](NC(=O)CNC(=O)[C@H](CO)NC(=O)[C@@H](NC(=O)[C@H](CC(C)C)NC(=O)[C@H](CCC(N)=O)NC(=O)[C@@H]1CSSC[C@H](NC(=O)[C@@H]2CCCN2C(=O)[C@H](C)NC(=O)CNC(=O)[C@H](CC(C)C)NC(=O)[C@H](CC(C)C)NC(=O)[C@@H](N)CCCNC(=N)N)C(=O)NCCCC(=O)N1)C(C)C)C(=O)NCCC(=O)NCCC(=O)N1CCC[C@H]1C(=O)N[C@@H](Cc1c[nH]c2ccccc12)C(N)=O (HELM PEPTIDE1{R.L.L.G.A.P.C.[O=C(CCCN[*:1])[*:2]].C.Q.L.V.S.G.I.[bAla].[bAla].P.W.[am]}$PEPTIDE1,PEPTIDE1,7:R3-9:R3$$$V2.0) |  |  | 39% |  |  | 
10 | CC[C@H](C)[C@H](NC(=O)CNC(=O)[C@H](CO)NC(=O)[C@@H](NC(=O)[C@H](CC(C)C)NC(=O)[C@H](CCC(N)=O)NC(=O)CCCNC(=O)[C@@H]1CCCN1C(=O)[C@H](C)NC(=O)CNC(=O)[C@H](CC(C)C)NC(=O)[C@H](CC(C)C)NC(=O)[C@@H](N)CCCNC(=N)N)C(C)C)C(=O)NCCC(=O)NCCC(=O)N1CCC[C@H]1C(=O)N[C@@H](Cc1c[nH]c2ccccc12)C(N)=O (HELM PEPTIDE1{R.L.L.G.A.P.[O=C(CCCN[*:1])[*:2]].Q.L.V.S.G.I.[bAla].[bAla].P.W.[am]}$$$$V2.0) |  |  | 32% |  |  | 
11 | CC[C@H](C)[C@H](NC(=O)CNC(=O)[C@H](CO)NC(=O)[C@@H](NC(=O)[C@H](CC(C)C)NC(=O)[C@@H]1CSSC[C@H](NC(=O)[C@H](C)NC(=O)CNC(=O)[C@H](CC(C)C)NC(=O)[C@H](CC(C)C)NC(=O)[C@@H](N)CCCNC(=N)N)C(=O)NCCCC(=O)N1)C(C)C)C(N)=O (HELM PEPTIDE1{R.L.L.G.A.C.[O=C(CCCN[*:1])[*:2]].C.L.V.S.G.I.[am]}$PEPTIDE1,PEPTIDE1,6:R3-8:R3$$$V2.0) |  |  | 39% |  |  | 
12 | CC[C@H](C)[C@H](NC(=O)CNC(=O)[C@H](CO)NC(=O)[C@@H](NC(=O)[C@H](CC(C)C)NC(=O)[C@H](CCC(N)=O)NC(=O)[C@H]1CC[C@@H](NC(=O)[C@@H]2CCCN2C(=O)[C@H](C)NC(=O)CNC(=O)[C@H](CC(C)C)NC(=O)[C@H](CC(C)C)NC(=O)[C@@H](N)CCCNC(=N)N)CC1)C(C)C)C(=O)NCCC(=O)NCCC(=O)N1CCC[C@H]1C(=O)N[C@@H](Cc1c[nH]c2ccccc12)C(N)=O (HELM PEPTIDE1{R.L.L.G.A.P.[O=C([C@H]1CC[C@@H](N[*:1])CC1)[*:2]].Q.L.V.S.G.I.[bAla].[bAla].P.W.[am]}$$$$V2.0) | Active | Active | 57% | Active |  | 
13 | CC(C)C[C@H](NC(=O)[C@H]1O[C@@H]1C(=O)O)C(=O)NCCCCN=C(N)N |  |  |  |  |  | Active
14 | CC[C@H](C)[C@H](NC(=O)CNC(=O)[C@H](CO)NC(=O)[C@@H](NC(=O)[C@H](CC(C)C)NC(=O)[C@H](CCC(N)=O)NC(=O)[C@H]1CC[C@@H](NC(=O)[C@@H]2CCCN2C(=O)[C@H](C)NC(=O)CNC(=O)[C@H](CC(C)C)NC(=O)[C@H](CC(C)C)NC(=O)[C@@H](N)CCCNC(=N)N)CC1)C(C)C)C(N)=O (HELM PEPTIDE1{R.L.L.G.A.P.[O=C([C@H]1CC[C@@H](N[*:1])CC1)[*:2]].Q.L.V.S.G.I.[am]}$$$$V2.0) | Active | Active | 50% | Active |  | 
15 | CC(=O)N[C@@H](CC(C)C)C(=O)N[C@@H](CC(C)C)C(=O)N[C@H](C=O)CCCNC(=N)N |  |  |  |  |  | Active
